Data: patent publication US20090082285A1, “Adiponectin expression promoter” (SAN-EI GEN F.F.I., INC., priority 2003, published 2009)

Test system: adiponectin mRNA in epididymis adipose cells
Experiment: Adiponectin mRNA level in isolated epididymis adipose cells (RT-PCR, gel densitometry)
Format: cell-based, Wistar male rat
Conditions: for mRNA level: adiponectin mRNA, control (DMSO) defined as 1, cultured 24 hours at 37° C.; for adiponectin mRNA level in adipose tissue (result in words): conclusion from FIG. 1 and Table 5, 100 μM or 250 μM vs DMSO control
Procedure: A Wistar male rat (body weight of 160 g) was sacrificed and its epididymis adipose tissues were excised. The epididymis adipose tissues were placed in 0.5% bovine serum albumin (BSA)/30 mM HEPES/200 nM adenosine/Krebs Ringer bicarbonate buffer(BSA-KRBH) containing 1176 units/mL of collagenase (Sigma, type II), and allowed to stand at 37° C. for 90 minutes (hereunder, 0.5% BSA/30 mM HEPES/200 nM adenosine/Krebs Ringer bicarbonate buffer is referred to as BSA-KRBH). Adipose cells were isolated from the connective tissue by the above-described operation. The isolated adipose cells were then washed with BSA-KRBH four times, and the thus-obtained adipose cells were suspended in a BSA-KRBH culture medium.
Subsequently, to the thus-obtained suspension, a solution prepared by dissolving cyanidin (Cy; manufactured by Funakoshi Co., Ltd.) or cyanidin 3-O-β-D-glucoside (hereinafter, referred to as “cyanidin 3-glucoside”)(C3G; manufactured by Funakoshi Co., Ltd.) in DMSO was added in such a manner that the final concentration of cyanidin or cyanidin 3-glucoside was 100 μM or 250 μM. The resulting solutions were cultured under 5% CO2 at 37° C. for 24 hours, and the adipose cells were then collected.
Total RNAs were extracted from the thus-obtained adipose cell using an RNA extracting reagent (ISOGEN, manufactured by Nippon Gene Co., Ltd.) by following the instruction manual (http://www.nippongene.jp/pages/products/extraction/isogen/genol. html). Using the total RNAs as a template, a reverse transcription reaction was conducted at 37° C. for 120 minutes, and the RNAs were amplified by 20 cycles of PCR (RT-PCR (Reverse transcription-polymerase chain reaction) method). Specifically, 2.5 μg of total RNAs was subjected to reverse transcription in a buffer solution comprising oligo dT primer, 1.3 mM dNTP (deoxynucleoside triphosphates, GIBCO BRL, Grand Island, N.Y.), 10 mM DTT (dithiothreitol, GIBCO BRL), and 200 U of RNase inhibitor (GIBCO BRL) using 200 U of Moloney murine leukemia virus reverse transcriptase (GIBCO BRL) at 37° C. for 120 minutes, then allowed to stand at 94° C. for 2 minutes, and the reaction was terminated. The thus-generated cDNAs were amplified in a 0.01% Tween 20/0.2 mM dNTP/2 mM MgCl2/75 mM Tris buffer (pH 8.8) containing 1 μM 5′-primer([…]) and 3′-primer([…]), using 1.5 U of Taq DNA polymerase (MBI Fermentas, Lithuania) by repeating 20 cycles of PCR (each cycle comprised a denaturation step at 94° C. for 30 seconds, an annealing step. at 58° C. for 30 seconds, and an extension reaction step at 72° C. for 30 seconds), and then allowed to stand at 72° C. for 10 minutes.
The RT-PCR product (502 bp) was applied to a 1% agarose gel with DNA size markers, and subjected to electrophoresis in a Tris-Acetate-EDTA buffer at 100 V for about 30 minutes. After conducting electrophoresis, the gel was dipped in an ethidium bromide solution, shaken for 15 minutes, and then stained. Subsequently, the fluorescence intensity of the gel was measured using a gel analysis program (ATTO Lane Analyzer 10H Software Densitograph provided by Atto Corporation).
Note that, in FIG. 1, the control is epididymis adipose cells to which only DMSO was added.

Structure (SMILES) | mRNA level (100 μM) | mRNA level (250 μM) | adiponectin mRNA level in adipose tissue (result in words)
Oc1cc(O)c2cc(O)c(-c3ccc(O)c(O)c3)[o+]c2c1 [Cyanidin, cyanidin] | 2.1 | 2.2 | increased adiponectin mRNA level
OCC1OC(Oc2cc3c(O)cc(O)cc3[o+]c2-c2ccc(O)c(O)c2)C(O)C(O)C1O [Cyanidin 3-glucoside, cyanidin 3-O-β-D-glucoside] | 2.7 | 2.1 | increased adiponectin mRNA level
